Among the data in US9206161B2, “Bridged bicyclic heteroaryl substituted triazoles useful as Axl inhibitors” (Rigel Pharmaceuticals, Inc., priority 2008, dated 2015) are IC50 values, retold here.

Each structure is given as a SMILES string. Where only a bound is given, the exact number is not on record here.

By IC50 is commonly meant the point on the concentration scale where inhibition reaches its midpoint. High values mean lower potency, low ones higher potency.

The target of the first assay is T1, Axl (Homo sapiens, UniProt P30530).
T1 construct: endogenous in cells; host or cells: HeLa cells
T1 sequence (P30530 26-894): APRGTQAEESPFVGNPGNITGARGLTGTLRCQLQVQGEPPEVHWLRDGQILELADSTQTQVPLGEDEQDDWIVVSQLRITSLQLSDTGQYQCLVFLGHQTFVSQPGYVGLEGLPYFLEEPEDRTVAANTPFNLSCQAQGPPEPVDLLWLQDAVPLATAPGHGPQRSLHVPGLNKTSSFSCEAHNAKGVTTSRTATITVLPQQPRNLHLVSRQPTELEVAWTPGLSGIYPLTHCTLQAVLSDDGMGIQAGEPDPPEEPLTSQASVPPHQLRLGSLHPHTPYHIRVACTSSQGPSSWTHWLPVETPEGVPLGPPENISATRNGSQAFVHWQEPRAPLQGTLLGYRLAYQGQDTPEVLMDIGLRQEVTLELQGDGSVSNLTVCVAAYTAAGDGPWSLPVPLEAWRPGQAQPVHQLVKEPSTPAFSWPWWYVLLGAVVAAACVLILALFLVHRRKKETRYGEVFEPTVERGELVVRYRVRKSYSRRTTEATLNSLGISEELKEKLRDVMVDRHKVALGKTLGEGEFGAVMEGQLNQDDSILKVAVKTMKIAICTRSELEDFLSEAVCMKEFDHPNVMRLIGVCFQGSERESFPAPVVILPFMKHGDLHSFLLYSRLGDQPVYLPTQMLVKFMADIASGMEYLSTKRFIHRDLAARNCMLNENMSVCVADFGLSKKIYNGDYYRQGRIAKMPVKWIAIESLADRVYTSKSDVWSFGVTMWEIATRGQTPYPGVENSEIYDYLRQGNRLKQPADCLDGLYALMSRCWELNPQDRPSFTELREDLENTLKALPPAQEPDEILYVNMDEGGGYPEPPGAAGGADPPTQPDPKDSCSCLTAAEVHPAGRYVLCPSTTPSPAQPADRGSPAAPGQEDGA
The experiment in a line: Phospho-Akt in-cell Western assay. Type of assay: cell-based. As to conditions: Table 4, formula (III); Hela cells, Axl antibody cross-linking stimulation, phospho-Akt readout. Here is the method: Phospho-Akt in-Cell Western Assay
The compounds of the invention were tested in the following assay for their ability to inhibit Axl activity.
• Cell culture plate: 96 well assay plate (Corning 3610), white, clear bottom, tissue-culture treated. • Cells: Hela cells. • Starvation medium: For Axl stimulation: 0.5% FCS (fetal calf serum) in DMEM, plus Axl/Fc (extracellular domain of AXL fused to immunoglobulin Fc region) (R&D, 154-AL) 500 ng/mL. • For EGF (epidermal growth factor) stimulation: 0.5% FCS in DMEM (Dulbecco's modified Eagles medium). • Poly-L-Lysine 0.01% solution (the working solution): 10 μg/ml, dilute In PBS (phosphate buffered saline). • Axl antibody cross-linking: • 1st: Mouse anti-Axl (R&D, MAB154). • 2nd: Biotin-SP-conjugated AffiniPure goat anti-mouse IgG (H+L) (Jackson ImmunoResearch #115-065-003). • Fixing buffer: 4% formaldehyde in PBS. • Wash buffer: 0.1% TritonX-100 in PBS. • Quenching buffer: 3% H2O2, 0.1% Azide in wash buffer, Azide and hydrogen peroxide (H2O2) are added fresh. • Blocking buffer: 5% BSA in TBST (tris buffered saline plus 0.1% Tween 20). • Primary antibody: Rabbit anti-human Phospho-Akt antibody (Cell Signaling 9271): 1×250 diluted in blocking buffer. • Secondary antibody: HRP (horse radish peroxidase)-conjugated Goat anti-Rabbit secondary, stock solution: Jackson ImmunoResearch (Goat anti-Rabbit HRP, #111-035-144) 1:1 diluted in glycerol, store at −20° C. The working solution: 1×2000 dilution of stock in blocking buffer. • Chemiluminescent working solution (Pierce, 37030): SuperSignal ELISA (enzyme linked immunosorbant assay) Pico Chemiluminescent substrate. • Crystal Violet solution: Stock: 2.5% Crystal violet in methanol, filtered and kept at ambient temperature. The working solution: dilute the stock 1:20 with PBS immediately before use. • 10% SDS: working solution: 5% SDS (sodium dodecylsulfate), diluted in PBS Methods: Day 1:
A 96 well TC (tissue culture treated) plate was coated with 10 μg/mL poly-L-Lysine at 37° C. for 30 min, washed twice with PBS, and air-dried for 5 minutes before cells were added. Hela cells were seeded at 10,000 cells/well and the cells were starved in 100 μL starvation medium containing Axl/Fc for 24 hrs.
The cells were pre-treated with test compounds by adding 100 μL of 2× test compound to the starvation medium on the cells. The cells were incubated at 37° C. for 1 hr before stimulation.
The cells were stimulated by Axl-antibody cross-linking as follows: A 5×1st/2nd Axl antibody mixture was made (37.5 μg/mL 1st/100 μg/mL 2nd) in starvation medium and nutated at 4° C. with thorough mixing for 1-2 hours for clustering. The resulting mix was warmed to 37° C. 50 μL of 5× Axl 1st/2nd of antibody cluster was added to the cells and the cells were incubated at 37° C. for 5 min.
After 5 minutes stimulation, the plate was flicked to remove medium and the plate was tapped onto paper towels. Formaldehyde (4.0% in PBS, 100 μL) was added to fix the cells and the cells were incubated at ambient temperature for 20 min without shaking.
The cells were washed with a plate washer buffer to remove the formaldehyde solution. The plate was flicked to removed excess wash buffer and tapped onto paper towels. Quenching buffer (100 μL) was added to each well and the cells were incubated at ambient temperature for 20 minutes without shaking.
The cells were washed with a plate washer buffer to remove the quenching buffer. Blocking buffer (100 μL) was added and the cells were incubated at ambient temperature for at least an hour with gentle shaking.
The cells were washed with a plate washer buffer and diluted primary antibody (50 μL) was added to each well (blocking buffer was added to the negative control wells instead). The plates were incubated overnight at 4° C. with gentle shaking.
The wash buffer was removed, diluted secondary antibody (100 μL) was added, and the cells were incubated at ambient temperature for 1 hour with gentle shaking. […]
For the compound `Nc1nc(Nc2ccc3c(c2)CC[C@@H](N)CC3)nn1-c1cc(-c2ccccc2)c2c(n1)C1CCN2CC1` [Compound 26, (7S)-1-(1,4-ethano-8-phenyl-1,2,3,4-tetrahydro-1,5-naphthyridin-6-yl)-N^3-(7-amino-6,7,8,9-tetrahydro-5H-benzo[7]annulene-2-yl)-1H-1,2,4-triazole-3,5-diamine], the IC50 is less than 1000 nM.

Staying with this assay, now noted: Table 5, formula (IVa); Hela cells, Axl antibody cross-linking stimulation, phospho-Akt readout.
`N#Cc1cccc(-c2nnc(-n3nc(Nc4ccc(N5CCC(N6CCCC6)CC5)c(F)c4)nc3N)c3c2C2CCC3CC2)c1` [Compound 16, 1-(4-(3-cyanophenyl)-5,8-ethano-5,6,7,8-tetrahydrophthalazine-1-yl)-N^3-(4-(4-(pyrrolidin-1-yl)piperidinyl)-3-fluorophenyl)-1H-1,2,4-triazole-3,5-diamine] registered an IC50 of less than 1000 nM.
Still for that read-out and setting: as for `Nc1nc(Nc2ccc(N3CCC(N4CCCC4)CC3)c(F)c2)nn1-c1nnc(-c2ccc3c(c2)OCO3)c2c1C1CCC2CC1` [Compound 17, 1-(4-(benzo[d][1,3]dioxol-5-yl)-5,8-ethano-5,6,7,8-tetrahydrophthalazine-1-yl)-N^3-(4-(4-(pyrrolidin-1-yl)piperidinyl)-3-fluorophenyl)-1H-1,2,4-triazole-3,5-diamine], the figure is less than 1000 nM.
On the same count and under the same terms, as for `Nc1nc(Nc2ccc(N3CCC(N4CCCC4)CC3)c(F)c2)nn1-c1nnc(-c2ccncc2)c2c1C1CCC2CC1` [Compound 18, 1-(4-(pyridin-4-yl)-5,8-ethano-5,6,7,8-tetrahydrophthalazine-1-yl)-N^3-(4-(4-(pyrrolidin-1-yl)piperidinyl)-3-fluorophenyl)-1H-1,2,4-triazole-3,5-diamine], the figure is less than 1000 nM; as for `Cc1cccc(-c2nnc(-n3nc(Nc4ccc(N5CCC(N6CCCC6)CC5)c(F)c4)nc3N)c3c2C2CCC3CC2)c1` [Compound 19, 1-(4-(3-methylphenyl)-5,8-ethano-5,6,7,8-tetrahydrophthalazine-1-yl)-N^3-(4-(4-(pyrrolidin-1-yl)piperidinyl)-3-fluorophenyl)-1H-1,2,4-triazole-3,5-diamine], 1000 to 10000 nM.

The same assay, now with this note: Table 7, formula (V); Hela cells, Axl antibody cross-linking stimulation, phospho-Akt readout.
`C[C@H]1CN(c2ccc(Nc3nc(N)n(-c4nnc(Cl)c5c4C4CCC5CC4)n3)cn2)CCN1CC1CC1` [Compound 20, (3S)-1-(4-chloro-5,8-ethano-5,6,7,8-tetrahydrophthalazine-1-yl)-N^3-(6-(4-(cyclopropylmethyl)-3-methylpiperazin-1-yl)pyridin-3-yl)-1H-1,2,4-triazole-3,5-diamine] displayed an IC50 of less than 1000 nM.
On the same count and under the same terms, as for `C[C@H]1CN(c2ccc(Nc3nc(N)n(-c4nnc(-c5ccccc5)c5c4C4CCC5CC4)n3)cn2)CCN1CC1CC1` [Compound 21, (3S)-1-(4-phenyl-5,8-ethano-5,6,7,8-tetrahydrophthalazine-1-yl)-N^3-(6-(4-(cyclopropylmethyl)-3-methylpiperazin-1-yl)pyridin-3-yl)-1H-1,2,4-triazole-3,5-diamine], the figure is 1000 to 10000 nM; as for `C[C@H]1CN(c2ccc(Nc3nc(N)n(-c4nnc(-c5ccccc5Cl)c5c4C4CCC5CC4)n3)cn2)CCN1CC1CC1` [Compound 22, (3S)-1-(4-(2-chlorophenyl)-5,8-ethano-5,6,7,8-tetrahydrophthalazine-1-yl)-N^3-(6-(4-(cyclopropylmethyl)-3-methylpiperazin-1-yl)pyridin-3-yl)-1H-1,2,4-triazole-3,5-diamine], less than 1000 nM; as for `Cc1cccc(-c2nnc(-n3nc(Nc4ccc(N5CCN(CC6CC6)[C@@H](C)C5)nc4)nc3N)c3c2C2CCC3CC2)c1` [Compound 23, (3S)-1-(4-(3-methylphenyl)-5,8-ethano-5,6,7,8-tetrahydrophthalazine-1-yl)-N^3-(6-(4-(cyclopropylmethyl)-3-methylpiperazin-1-yl)pyridin-3-yl)-1H-1,2,4-triazole-3,5-diamine], 1000 to 10000 nM.
On the same count and under the same terms, to `C[C@H]1CN(c2ccc(Nc3nc(N)n(-c4nnc(-c5ccncc5)c5c4C4CCC5CC4)n3)cn2)CCN1CC1CC1` [Compound 24, (3S)-1-(4-(pyridin-4-yl)-5,8-ethano-5,6,7,8-tetrahydrophthalazine-1-yl)-N^3-(6-(4-(cyclopropylmethyl)-3-methylpiperazin-1-yl)pyridin-3-yl)-1H-1,2,4-triazole-3,5-diamine] belongs 1000 to 10000 nM.

The assay is the same for the next values; noted with them: Table 8, formula (VI); Hela cells, Axl antibody cross-linking stimulation, phospho-Akt readout.
`Nc1nc(Nc2ccc3c(c2)CCC(N2CCCC2)CC3)nn1-c1nnc(Cl)c2c1C1CCC2CC1` (centres unmarked) [Compound 27, 1-(4-chloro-5,8-ethano-5,6,7,8-tetrahydrophthalazine-1-yl)-N^3-(7-(pyrrolidin-1-yl)-6,7,8,9-tetrahydro-5H-benzo[7]annulene-2-yl)-1H-1,2,4-triazole-3,5-diamine] showed a concentration for half-maximal inhibition (IC50) of less than 1000 nM.
As to `Nc1nc(Nc2ccc3c(c2)CCC(N2CCCC2)CC3)nn1-c1nnc(-c2ccccc2)c2c1C1CCC2CC1` (centres unmarked) [Compound 28, 1-(4-phenyl-5,8-ethano-5,6,7,8-tetrahydrophthalazine-1-yl)-N^3-(7-(pyrrolidin-1-yl)-6,7,8,9-tetrahydro-5H-benzo[7]annulene-2-yl)-1H-1,2,4-triazole-3,5-diamine], the IC50 is less than 1000 nM.
On the same count and under the same terms, to `Nc1nc(Nc2ccc3c(c2)CCC(N2CCCC2)CC3)nn1-c1nnc(-c2ccccc2Cl)c2c1C1CCC2CC1` (centres unmarked) [Compound 29, 1-(4-(2-chlorophenyl)-5,8-ethano-5,6,7,8-tetrahydrophthalazine-1-yl)-N^3-(7-(pyrrolidin-1-yl)-6,7,8,9-tetrahydro-5H-benzo[7]annulene-2-yl)-1H-1,2,4-triazole-3,5-diamine] belongs less than 1000 nM; to `Cc1cccc(-c2nnc(-n3nc(Nc4ccc5c(c4)CCC(N4CCCC4)CC5)nc3N)c3c2C2CCC3CC2)c1` (centres unmarked) [Compound 30, 1-(4-(3-methylphenyl)-5,8-ethano-5,6,7,8-tetrahydrophthalazine-1-yl)-N^3-(7-(pyrrolidin-1-yl)-6,7,8,9-tetrahydro-5H-benzo[7]annulene-2-yl)-1H-1,2,4-triazole-3,5-diamine], less than 1000 nM.
